Measured values from US11147272B2, “Pyridone compounds and agricultural and horticultural fungicides comprising the same as active ingredients” (MITSUI CHEMICALS AGRO, INC., priority 2017, dated 2021).

Legend:
Puccinia recondita = assay: Test Example E: Brown rust on wheat; type: in vivo; conditions: Brown rust on wheat; control value class
[1] = test system: Blumeria graminis f. sp. hordei; assay: Test Example D: Powdery mildew on barley; conditions: Powdery mildew on barley; control value class
Alternaia brassicicola = assay: Test Example C: Alternaria sooty spot on cabbage; type: in vivo; conditions: Alternaria sooty spot on cabbage; control value class
Excerpt: Seeds of a test plant (cabbage variety: Shikidori) were planted and cultivated until the cotyledons extended.
<Control Value> Control value=100{1−(n/3)}

Phytophthora infestans = assay: whole plant or invertebrate; type: in vivo; conditions: Late blight on tomato; control value class
[2] = test system: Colletotrichum orbiculare; assay: Test Example H: Anthracnose on cucumber; conditions: Anthracnose on cucumber; 250 ppm spray, 6 to 10 days after inoculation
Botrytis cinerea = assay: Test Example B: Gray mold on tomato; conditions: Gray mold on tomato; control value class
Magnaporthe grisea = assay: whole plant or invertebrate; type: in vivo; conditions: Blast on rice; control value class
Plasmopara viticola = assay: Test Example G: Downy mildew on vine; conditions: Downy mildew on vine; 250 ppm spray, 7 to 10 days after inoculation

Row | Compound | Test E control value (Puccinia recondita) | Test D control value [1] | Test C control value (Alternaia brassicicola) | Test F control value (Phytophthora infestans) | Test H control value [2] | Test B control value (Botrytis cinerea) | Test A control value (Magnaporthe grisea) | Test G control value (Plasmopara viticola)
1 | CCc1cc(Cl)c(=O)n(CC)c1-c1ccc(OC)cc1C [compound 355] | H (more than 50% control value) | H (more than 50% control value) | H (more than 50% control value) | L (50% or less control value) | H (more than 50% control value) | H (more than 50% control value) | H (more than 50% control value) | L (50% or less control value)
2 | CCc1cc(Br)c(=O)n(CC)c1-c1ccc(OC)cc1C [compound 356] | H (more than 50% control value) | H (more than 50% control value) | H (more than 50% control value) | L (50% or less control value) | H (more than 50% control value) | H (more than 50% control value) | H (more than 50% control value) | L (50% or less control value)
3 | CCc1cc(Cl)c(=O)n(C)c1-c1ccc(OC)cc1Br [compound 357] | H (more than 50% control value) | L (50% or less control value) | L (50% or less control value) | L (50% or less control value) | H (more than 50% control value) | H (more than 50% control value) | H (more than 50% control value) | L (50% or less control value)
4 | CCc1cc(Br)c(=O)n(C)c1-c1ccc(OC)cc1Br [compound 358] | H (more than 50% control value) | H (more than 50% control value) | L (50% or less control value) | L (50% or less control value) | L (50% or less control value) | H (more than 50% control value) | L (50% or less control value) | L (50% or less control value)
5 | CCCC1=C(c2ccc(F)cc2Br)N(CC)C(=O)CC1 [compound 359] | L (50% or less control value) | H (more than 50% control value) | L (50% or less control value) | L (50% or less control value) | L (50% or less control value) | L (50% or less control value) | L (50% or less control value) | L (50% or less control value)
6 | CCc1ccc(=O)n(C)c1-c1ccc(F)cc1C [compound 360] | L (50% or less control value) | L (50% or less control value) | L (50% or less control value) | H (more than 50% control value) | L (50% or less control value) | L (50% or less control value) | L (50% or less control value) | L (50% or less control value)
7 | CCCc1ccc(=O)n(CC)c1-c1ccc(F)cc1Br [compound 361] | H (more than 50% control value) | H (more than 50% control value) | L (50% or less control value) | L (50% or less control value) | L (50% or less control value) | H (more than 50% control value) | H (more than 50% control value) | L (50% or less control value)
8 | CCc1cc(Cl)c(=O)n(C)c1-c1ccc(F)cc1C [compound 362] | H (more than 50% control value) | H (more than 50% control value) | L (50% or less control value) | L (50% or less control value) | L (50% or less control value) | H (more than 50% control value) | H (more than 50% control value) | L (50% or less control value)
9 | CCc1cc(Br)c(=O)n(C)c1-c1ccc(F)cc1C [compound 363] | H (more than 50% control value) | L (50% or less control value) | L (50% or less control value) | L (50% or less control value) | L (50% or less control value) | H (more than 50% control value) | H (more than 50% control value) | H (more than 50% control value)
10 | CCn1c(-c2c(F)cc(F)cc2F)c(C=O)cc(Br)c1=O [compound 364] | H (more than 50% control value) | L (50% or less control value) | H (more than 50% control value) | L (50% or less control value) | L (50% or less control value) | H (more than 50% control value) | L (50% or less control value) | H (more than 50% control value)
11 | CCn1c(-c2c(F)cc(F)cc2F)c(C(O)C(C)C)cc(Br)c1=O (stereo not shown) [compound 365] | H (more than 50% control value) | H (more than 50% control value) | H (more than 50% control value) | L (50% or less control value) | H (more than 50% control value) | H (more than 50% control value) | H (more than 50% control value) | H (more than 50% control value)
12 | CCn1c(-c2c(F)cc(F)cc2F)c(C(=O)C(C)C)cc(Br)c1=O [compound 366] | H (more than 50% control value) | H (more than 50% control value) | H (more than 50% control value) | L (50% or less control value) | H (more than 50% control value) | H (more than 50% control value) | H (more than 50% control value) | H (more than 50% control value)
13 | CCc1ccc(=O)n(C)c1-c1ccc(OC)cc1C [compound 367] | L (50% or less control value) | H (more than 50% control value) | L (50% or less control value) | L (50% or less control value) | H (more than 50% control value) | L (50% or less control value) | L (50% or less control value) | L (50% or less control value)
14 | CCCc1cc(Cl)c(=O)n(CC)c1-c1ccc(F)cc1Br [compound 368] | H (more than 50% control value) | H (more than 50% control value) | H (more than 50% control value) | H (more than 50% control value) | H (more than 50% control value) | H (more than 50% control value) | H (more than 50% control value) | H (more than 50% control value)
